From the NIST ThermoML archive (doi:10.1016/j.tca.2009.07.002)

Legend:
[1] = xn = mol fraction of the nth substance listed; conditions: 101 kPa, Liquid, Vibrating tube method
[2] = 101 kPa, Liquid, Vibrating tube method

CCCCCCC [heptane] + CCCCO
[1], x2 = 0
Conditions	mass density [kg/m3]
288.15 K	687.954
293.15 K	683.733
298.15 K	679.494
303.15 K	675.229
308.15 K	670.941
313.15 K	666.621
318.15 K	662.273
323.15 K	657.896

CCCCO [butan-1-ol]
[2]
Conditions	mass density [kg/m3]
288.15 K	813.373
293.15 K	809.573
298.15 K	805.762
303.15 K	801.923
308.15 K	798.053
313.15 K	794.147
318.15 K	790.231
323.15 K	786.238

CCCCCCC [heptane]
[2]
Conditions	mass density [kg/m3]
288.15 K	687.954
293.15 K	683.733
298.15 K	679.494
303.15 K	675.229
308.15 K	670.941
313.15 K	666.621
318.15 K	662.273
323.15 K	657.896

CCCCCCC [heptane] + NC1CCCCC1
[1], x2 = 0
Conditions	mass density [kg/m3]
288.15 K	687.954
293.15 K	683.733
298.15 K	679.494
303.15 K	675.229
308.15 K	670.941
313.15 K	666.621
318.15 K	662.273
323.15 K	657.896

CCCCO [butan-1-ol] + NC1CCCCC1
[1], x1 = 1
Conditions	mass density [kg/m3]
288.15 K	813.373
293.15 K	809.573
298.15 K	805.762
303.15 K	801.923
308.15 K	798.053
313.15 K	794.147
318.15 K	790.231
323.15 K	786.238

NC1CCCCC1 [cyclohexylamine]
[2]
Conditions	mass density [kg/m3]
288.15 K	871.29
293.15 K	866.747
298.15 K	862.207
303.15 K	857.671
308.15 K	853.138
313.15 K	848.607
318.15 K	844.073
323.15 K	839.547
